Literature values, collected in patent US20070149611A1, “CB-DELTA8-THC COMPOSITION” (priority 2003, published 2007).

Key:
[1] = CBD alone
[2] = more effective than Δ^9-THC; Abrahamov et al, 1995
[3] = Δ^9-THC is easily oxidized to cannabinol
[4] = relative to Δ^9-THC

Row | Structure (SMILES) | effects when administered on its own [1] | anti-emetic effectiveness relative to Δ^9-THC [2] [%] | stability towards oxidation to cannabinol [3] | psychometric potency, less potent than Δ^9-THC (generally considered) [4] [%] | psychometric potency, times less potent than Δ^9-THC (in some cases) [4]
1 | C=C(C)[C@@H]1CCC(C)=C[C@H]1c1c(O)cc(CCCCC)cc1O [CBD, cannabidiol] | no noticeable effects |  |  |  | 
2 | CCCCCc1cc(O)c2c(c1)OC(C)(C)[C@@H]1CC=C(C)C[C@@H]21 [Δ^8-THC, Δ^8-tetrahydrocannabinol] |  | 200 | very stable | 50 | 3-10 times
